Each structure is given as a SMILES string.

The values that follow come from patent publication US9522125B1, “Method of treating cancer” (Macau University of Science and Technology, priority 2015, dated 2016).

One assay concerns the target ROS1 kinase (Homo sapiens, UniProt P08922). As to the kind of experiment: In vitro ROS1 enzymatic assay (LanthaScreen Eu kinase binding assay). To be noted: room temperature, 1 hour. How it is done:
1.2 In Vitro ROS1 Enzymatic Assay
LanthaScreen® Eu kinase binding assay was used to determine the changes in kinase activity, which is an assay based on the binding and displacement property of the kinase with substrate. Briefly, the assay was performed at room temperature for 1 hour in a total volume of 15 μL, including 5 μL of test compound, 5 μL of kinase/antibody mixture and 5 μL of tracer. The signal of the 384-well plate was then measured at the end of the reactions.
On the technique in general: Time-resolved FRET reads energy transfer from a long-lived donor to a nearby acceptor.

For assay [1], the system named is HCC78 cells. As to the kind of experiment: MTT cytotoxicity assay on HCC78 cells. Type of assay: cell-based. To be noted: Homo sapiens, 72 h treatment. How it is done: HCC78 cell line was purchased from the American Type Culture Collection (ATCC) (Manassas, Va., USA). Cells were cultured in RPMI-1640 medium containing 10% fetal bovine serum (FBS), 100 units/mL penicillin, and 100 μg/mL streptomycin under a humidified atmosphere of 5% CO2 at 37° C. Mitoxantrone was dissolved in DMSO.
(§1) 1.3 MTT Cytotoxicity Assay
(§2) 3000 cells were seeded on 96-well plates, then the plates were cultured overnight for cell adhesion, and treated with DMSO or various concentrations of mitoxantrone for 72 h. 10 μL of MTT (5 mg/mL; Sigma) was added in each well, and incubation was continued for another 4 hours, then the dark blue crystals were dissolved in 100 μL resolved solution (10% SDS and 0.1 mM HCL). Finally, the absorbance was measured at 570 nm by a microplate reader (Tecan, Morrisville, N.C., USA). The cell viability was calculated relative to untreated controls, and results were presented based on at least 3 independent experiments.
Background: Tetrazolium assays rely on reduction of a dye to a coloured formazan, in cell work by metabolically active cells.

The test system of a further assay is CCD19-Lu cells. In words: MTT cytotoxicity assay on normal lung cells CCD19-Lu. To be noted: 72 h treatment. Type of assay: cell-based. As for the experimental part:
as §1, §2

The subject of assay [2] is HCC78 cells. As to the kind of experiment: Apoptosis analysis (morphology; Annexin-V FITC/PI flow cytometry) in HCC78 cells. Type of assay: cell-based. How it is done: HCC78 cells were seeded on a 6-well plate, and were allowed to attach overnight. The cells were treated with a dilution series of mitoxantrone for 48 h, collected by trypsin and washed twice with ice-cold PBS, and then resuspended in 100 μl 1× binding buffer. 2 μL Annexin-V FITC and 4 μL PI (100 μg/ml) were added to the solution and mixed well. After incubation for 15 min in the dark at room temperature, 400 μL of 1× binding buffer was added to each tube, where apoptosis level was then quantitatively analyzed using a FACSAria III Flow Cytometer (BD Biosciences, San Jose, Calif., USA).
A general note: Flow cytometry measures light scatter and fluorescence of single cells or particles in a stream.

Another assay has as its system ROS1 phosphorylation. As to the kind of experiment: Western blot analysis of ROS1 phosphorylation and downstream signaling in HCC78 cells. It counts as cell-based. To be noted: 48 h, 5 nM, 10 nM and 20 nM. As for the experimental part: 1.5 Western Blot Analysis
After cells were plated on 6-well plates overnight, a wide concentrations of mitoxantrone were administered for 48 h. Cells were washed twice with cold PBS and then lysed in RIPA lysis buffer containing protease and phosphatase inhibitors, and protein concentration of the cell lysates were measured using the Bio-Rad protein Assay kit (Bio-Rad, Philadelphia, Pa., USA). After equalizing the protein concentrations of the samples, 5× laemmli buffer was added and boiled at 100° C. for 5 min. Equal amounts of protein samples (30 μg) were subjected to SDS-PAGE and separated with a 10% gel; then the separated proteins were transferred to a Nitrocellulose (NC) membrane, which was then exposed to 5% non-fat dried milk in TBS containing 0.1% Tween 20 (0.1% TBST) for 1 h at room temperature, followed by overnight incubation at 4° C. with primary anti-bodies (1:1000 dilutions). After being washed 3 times by TBST, the membranes were incubated with secondary fluorescent antibodies (1:10000 dilutions) to rabbit or mouse, the signal intensity of the membranes was detected by an LI-COR Odessy scanner (Belfast, Me., USA). Antibodies against GAPDH, p-AKT, p-ROS1, ROS1, p-ERK, ERK, p-STAT3, STAT3 were purchased from Cell signaling Technology. Anti-AKT antibody was acquired from Santa Cruz Biotechnology.

ROS1 kinase, sequence (P08922 28-2347): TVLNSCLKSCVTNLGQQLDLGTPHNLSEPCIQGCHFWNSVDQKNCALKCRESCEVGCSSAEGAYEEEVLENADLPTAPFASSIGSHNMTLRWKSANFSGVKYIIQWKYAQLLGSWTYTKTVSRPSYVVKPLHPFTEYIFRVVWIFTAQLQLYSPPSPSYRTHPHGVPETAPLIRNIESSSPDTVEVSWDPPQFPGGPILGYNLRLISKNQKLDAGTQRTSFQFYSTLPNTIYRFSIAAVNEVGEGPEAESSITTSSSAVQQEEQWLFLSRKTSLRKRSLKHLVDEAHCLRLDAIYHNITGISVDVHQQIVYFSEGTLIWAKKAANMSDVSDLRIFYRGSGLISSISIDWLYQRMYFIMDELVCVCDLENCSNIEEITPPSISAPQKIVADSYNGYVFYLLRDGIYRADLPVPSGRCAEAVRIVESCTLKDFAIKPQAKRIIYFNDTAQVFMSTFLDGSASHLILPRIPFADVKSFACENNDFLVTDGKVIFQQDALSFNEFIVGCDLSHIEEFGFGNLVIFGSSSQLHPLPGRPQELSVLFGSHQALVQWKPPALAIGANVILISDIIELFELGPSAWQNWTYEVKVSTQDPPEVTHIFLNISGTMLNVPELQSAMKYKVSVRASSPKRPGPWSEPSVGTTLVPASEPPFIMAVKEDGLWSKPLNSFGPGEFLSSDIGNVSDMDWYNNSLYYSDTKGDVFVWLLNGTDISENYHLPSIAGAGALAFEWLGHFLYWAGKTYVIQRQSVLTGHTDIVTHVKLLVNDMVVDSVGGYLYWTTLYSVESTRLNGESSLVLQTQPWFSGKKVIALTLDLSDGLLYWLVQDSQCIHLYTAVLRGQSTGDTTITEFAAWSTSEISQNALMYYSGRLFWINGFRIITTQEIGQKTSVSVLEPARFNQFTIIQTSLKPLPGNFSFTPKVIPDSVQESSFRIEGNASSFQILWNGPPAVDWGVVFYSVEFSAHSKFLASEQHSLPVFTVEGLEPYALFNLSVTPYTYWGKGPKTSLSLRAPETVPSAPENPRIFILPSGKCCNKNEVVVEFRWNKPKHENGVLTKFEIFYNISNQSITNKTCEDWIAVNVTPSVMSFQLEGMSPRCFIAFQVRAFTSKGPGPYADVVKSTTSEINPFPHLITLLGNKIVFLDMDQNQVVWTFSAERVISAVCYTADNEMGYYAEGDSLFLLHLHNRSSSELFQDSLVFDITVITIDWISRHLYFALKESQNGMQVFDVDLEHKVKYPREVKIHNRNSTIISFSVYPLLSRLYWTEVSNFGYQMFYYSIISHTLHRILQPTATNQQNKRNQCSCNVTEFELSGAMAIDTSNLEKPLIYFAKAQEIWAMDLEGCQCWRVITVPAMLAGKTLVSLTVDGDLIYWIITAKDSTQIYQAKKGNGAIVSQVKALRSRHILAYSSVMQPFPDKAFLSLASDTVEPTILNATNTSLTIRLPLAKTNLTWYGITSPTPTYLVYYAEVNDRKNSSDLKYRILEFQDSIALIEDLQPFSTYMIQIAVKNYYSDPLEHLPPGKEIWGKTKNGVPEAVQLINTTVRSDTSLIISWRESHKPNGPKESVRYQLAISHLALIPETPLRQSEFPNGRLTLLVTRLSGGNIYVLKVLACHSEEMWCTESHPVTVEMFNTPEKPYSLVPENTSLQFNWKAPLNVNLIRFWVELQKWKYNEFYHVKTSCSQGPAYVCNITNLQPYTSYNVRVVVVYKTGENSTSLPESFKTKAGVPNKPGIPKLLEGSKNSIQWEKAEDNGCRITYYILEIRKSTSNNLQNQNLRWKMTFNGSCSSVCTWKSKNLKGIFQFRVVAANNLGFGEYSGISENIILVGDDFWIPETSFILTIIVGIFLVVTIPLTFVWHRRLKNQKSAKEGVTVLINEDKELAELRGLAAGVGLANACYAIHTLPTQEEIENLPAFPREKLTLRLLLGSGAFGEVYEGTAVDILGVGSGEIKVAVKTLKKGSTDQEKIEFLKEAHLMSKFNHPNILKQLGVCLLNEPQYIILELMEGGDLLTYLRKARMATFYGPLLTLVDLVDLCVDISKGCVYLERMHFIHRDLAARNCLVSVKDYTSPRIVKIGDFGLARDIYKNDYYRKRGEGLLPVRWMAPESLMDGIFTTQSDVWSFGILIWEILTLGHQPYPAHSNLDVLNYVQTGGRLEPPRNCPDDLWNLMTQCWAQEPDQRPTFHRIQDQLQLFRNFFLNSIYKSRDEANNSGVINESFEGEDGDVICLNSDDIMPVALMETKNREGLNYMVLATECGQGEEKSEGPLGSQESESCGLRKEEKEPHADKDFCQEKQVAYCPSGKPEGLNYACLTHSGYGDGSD

Consider `O=C1c2c(O)ccc(O)c2C(=O)c2c(NCCNCCO)ccc(NCCNCCO)c21` [Mitoxantrone, mitoxantrone], for which the IC50 on ROS1 kinase was 0.036 µM; in the assay with HCC78 cells [1], 0.0138 ± 0.00249 µM; in the assay on CCD19-Lu cells (Homo sapiens, CCD 19Lu, CCD19-Lu normal lung cells), greater than 0.16 µM. The “fold of IC50 in CCD19-Lu over IC50 on HCC78” value with CCD19-Lu cells is on record as “at least 11.6 fold”. In the assay with HCC78 cells [2] (48 h, 5 nM, 10 nM and 20 nM, compared with the control group), the “induction of apoptosis (flow cytometry)” value is “induced significant apoptosis levels”. The “concentration from which cells detached and became smaller (morphological indication of apoptosis)” value in the assay on HCC78 cells [2] (FIG. 4) is no less than 10 nM. For the same compound, in the assay with ROS1 phosphorylation, the “ROS1 phosphorylation and downstream signaling molecules Erk1/2, STAT3 and AKT (western blot)” value is on record as “dose-dependent decrease”.

By IC50 is commonly meant the concentration needed to halve the response being measured.
